Like-named read-outs stand apart in the source and are kept apart here.
Key:
[1] = system: Walker carcinoma cells; test: Inhibition of multiplication of Walker cells (cell proliferation), single active material or combination, Chou and Talalay analysis; type: cell-based, rat
Method: Dose-action curves for individual active materials or active material combinations were obtained by the addition of corresponding active materials to a suspension of Walker cells (10^5 cells/ml.). After an incubation time of 48 hours, the cells were counted with the help of an electronic counter (Coulter Electronics, Luton, U.K.). The multiplication of the cells (M) was calculated according to the following formula:
in which C stands for the untreated control cells, T signifies the number of treated cells and the indices 0 and t indicate the number of the cells at the time point 0 and after 48 h.
The data used for the calculation originated from at least three different experiments.

[2] = target: protein kinase C; test: Inhibition of protein kinase C (PK-C): in vitro method, 32P incorporation into H1 histone; type: biochemical, rat
Method: b) Inhibition of protein kinase C (PK-C): in vitro method.
However, to the extracts was additionally added 1 mM phenylmethanesulphonyl chloride, 20 μg./ml. leupeptin and 2 μg./ml. aprotinin. […] 1,2-s,n-diolein. The reaction time was 10 minutes at 32° C. The enzyme reaction was stopped by the addition of 1 ml. 20% trichloroacetic acid (w/v). The protein was precipitated out on Whatman GF/F filter paper and counted with the help of a liquid scintillation counter.
Quercetin was solubilised in dimethyl sulphoxide (DMSO). For the batch mixing, the solution in DMSO was made up to a DMSO end concentration of 1%. An equivalent amount of pure DMSO was added to the control groups. The influence of quercetin on the cell multiplication was investigated by the addition of the active material in DMSO to the culture medium up to an end concentration of 0.1%. The cells were cultured in the presence of the active material for 48 hours. The control group only received pure DMSO.

[3] = system: Meth A-fibrosarcoma cells; test: [3H]-Thymidine incorporation, inhibition of tumour cell proliferation; type: cell-based; settings: Table 2; ilmofosin alone; read-out: IC50, inhibition of tumour cell proliferation, single active material
Method: b) [3H]-Thymidine incorporation.
The cytostatic or cytotoxic effect of the active materials or active material combinations on Meth A-fibrosarcoma cells was investigated in vitro on the basis of the reduced incorporation of [3H]-thymidine. The cells were suspended in DMEM, 10% FCS, 50 μM 2-mercaptoethanol, 100 U/ml. penicillin and 100 μg./ml. streptomycin up to an end concentration of 5×10^4 /ml. in the absence of the active materials. The active materials were added to the cells in an end volume of 20 μl. Per concentration, 6 cultures of 0.2 ml. were used and incubated in microtitre plates in a moist atmosphere. The cultures were pulsed for 3 hours with 1 μCi […] [methyl-^3 H]-thymidine(specific activity 5 Ci/mmol). The samples were subsequently collected and washed several times. The filter plates used were dried and transferred to scintillation test tubes. The radio-active incorporation was measured by the addition of Rotiscint.
The IC50 values for a combination of ilmofosin with CDDP or doxorubicin were determined in the manner described above in Example 7b).

[4] = Rattus norvegicus, 48 h; read-out: IC50 cell proliferation in combination with cis-DDP
[5] = Table 1, 50% inhibition of the protein kinase C, read-out: inhibition of the protein kinase C IC50
[6] = protein kinase C enriched from Walker cells, 10 minutes at 32° C., pH 7.4, read-out: IC50, inhibition of protein kinase C (Examples 2-6)
[7] = combination of the inhibitor with cis-DDP, 48 hours; method of Chou and Talalay
[8] = Rattus norvegicus, 48 h, read-out: IC50 cell proliferation
[9] = Rattus norvegicus, 48 h, read-out: IC50 cell proliferation in combination with cis-DDP

| SMILES | IC50 [1, 4] [µM] | IC50 [2, 5] [µM] | IC50 [2, 6] [µM] | nature of the activity [1, 7] | IC50 [1, 8] [µM] | IC50 [1, 9] [µM] | further results |
| --- | --- | --- | --- | --- | --- | --- | --- |
| CCCCCCCCCCCCCCCCCCOCC(COP(=O)([O-])OCC[N+](C)(C)C)OC (stereo not drawn) [ET-18-OCH3, 4-hydroxy-7-methoxy-N,N,N-trimethyl-3,5,9-trioxa-4-phosphaheptacosan-1-aminium 4-oxide] | 1.7 | – | – | – | – | – | IC50 ([1]; Rattus norvegicus; Table 1; single active material, 48 hours; read-out: IC50 cell proliferation): 5.8 µM |
| N.N.[Cl][Pt][Cl] [cis-DDP, cis-diammine-dichloroplatinum (II)] | – | > 1000 | – | – | – | – | IC50 ([1]; Table 1; single active material, 48 hours; read-out: IC50 cell proliferation): 0.23 µM |
| CCCCCCCCCCCCCCCCSCC(COC)COP(=O)([O-])OCC[N+](C)(C)C (stereo not drawn) [ilmofosin] | 2 | 0.56 | 20 | synergism | – | – | IC50 [3]: 1.06 µg/mL |
| O=c1c(O)c(-c2ccc(O)c(O)c2)oc2cc(O)cc(O)c12 [quercetin, 3,3',4',5,7-pentahydroxyflavone] | – | 25 | 25 | synergism | 23 | 3.8 | – |
| CN[C@@H]1C[C@H]2O[C@@](C)([C@@H]1OC)n1c3ccccc3c3c4c(c5c6ccccc6n2c5c31)C(=O)NC4 [staurosporin] | – | – | – | synergism | 0.4 | 0.004 | – |
| CC/C(=C(\c1ccccc1)c1ccc(OCCN(C)C)cc1)c1ccccc1 [tamoxifen] | – | – | – | synergism | – | – | – |

From patent publication US5770593A, “Method of determining a pharmaceutical combination preparations for use in anti-neoplastic therapy” (Boehringer Mannheim GmbH, priority 1988, dated 1998)
